Active and inactive are the calls of the source. The calls are words filed in the database; no cut-off is given here.
What was measured:
Mus musculus [1] = assay: Toxicity in nude mouse xenografted with human H460 cells assessed as body weight loss at 30 mg/kg,iv qd administered for 6 days measured on day 37 relative to control; type: organism-based; design: dose 30 mg/kg; conditions: in vivo, 144 h
[2] = Cell cycle arrest in human HCT116 cells assessed as accumulation at sub-G1 phase at 1 uM after 72 hrs by FACS flow cytometric analysis (reference value: 3.29 +/- 1.39%); type: functional, cell-based; conditions: HCT-116
[3] = Cell cycle arrest in human HCT116 cells assessed as accumulation at G1 phase at 1 uM after 48 hrs by FACS flow cytometric analysis (reference value: 62.16 +/- 5.94%); type: functional, cell-based; conditions: HCT-116
[4] = Cell cycle arrest in human HCT116 cells assessed as accumulation at G1 phase at 2 uM after 24 hrs by FACS flow cytometric analysis (reference value: 48.75 +/- 3.69%); type: functional, cell-based; conditions: HCT-116
[5] = Cell cycle arrest in human HCT116 cells assessed as accumulation at G1 phase at 2 uM after 48 hrs by FACS flow cytometric analysis (reference value: 62.16 +/- 5.94%); type: functional, cell-based; conditions: HCT-116
[6] = Cell cycle arrest in human HCT116 cells assessed as accumulation at G1 phase at 4 uM after 24 hrs by FACS flow cytometric analysis (reference value: 48.75 +/- 3.69%); type: functional, cell-based; conditions: HCT-116
[7] = Cell cycle arrest in human HCT116 cells assessed as accumulation at G1 phase at 2 uM after 72 hrs by FACS flow cytometric analysis (reference value: 76.29 +/- 2.65%); type: functional, cell-based; conditions: HCT-116
[8] = Cell cycle arrest in human HCT116 cells assessed as accumulation at sub-G1 phase at 1 uM after 24 hrs by FACS flow cytometric analysis (reference value: 1.37 +/- 0.95%); type: functional, cell-based; conditions: HCT-116
[9] = Antitumor activity against human PC3 cells xenografted in nude mouse assessed as tumor growth inhibition at 40 mg/kg,iv administered every 2 days for 5 doses measured on day 38 relative to control; type: functional; conditions: PC-3, iv, read-out: TGI
HCT-116 = assay: Antitumor activity against human HCT116 cells xenografted in nude mouse assessed as survival at 30 mg/kg,iv qd administered for 6 days; type: functional, organism-based; design: dose 30 mg/kg
[10] = Cell cycle arrest in human HCT116 cells assessed as accumulation at G2/M phase at 2 uM after 24 hrs by FACS flow cytometric analysis (reference value: 31.55 +/- 4.63%); type: functional, cell-based; conditions: HCT-116
[11] = Antitumor activity against human H3347 cells xenografted in nude mouse assessed as tumor growth inhibition at 30 mg/kg,iv qd administered for 6 days measured on day 31 relative to control; type: functional; conditions: read-out: TGI
Mus musculus [12] = assay: Toxicity in nude mouse xenografted with human PC3 cells assessed as change in body weight at 50 mg/kg,iv administered every 2 days for 5 doses measured on day 38 relative to control; type: organism-based, PC-3; design: dose 50 mg/kg; conditions: in vivo, 48 h
HT-29 = assay: Cytotoxicity against human HT-29 cells assessed as growth inhibition after 72 hrs by Alamar Blue assay; type: functional, cell-based; conditions: HT-29, 72 h
[13] = Cell cycle arrest in human HCT116 cells assessed as accumulation at G2/M phase at 1 uM after 24 hrs by FACS flow cytometric analysis (reference value: 31.55 +/- 4.63%); type: functional, cell-based; conditions: HCT-116
[14] = Cytotoxicity against human DLD1 cells assessed as growth inhibition after 72 hrs by Alamar Blue assay; type: functional, cell-based; conditions: DLD-1, 72 h
[15] = Cell cycle arrest in human HCT116 cells assessed as accumulation at G2/M phase at 2 uM after 48 hrs by FACS flow cytometric analysis (reference value: 23.95 +/- 1.87%); type: functional, cell-based; conditions: HCT-116
Mus musculus [16] = assay: Toxicity in CD-1 (ICR) mouse assessed as gross lesions in thymus at 150 mg/kg, iv measured for 14 days; type: organism-based; design: dose 150 mg/kg, route intravenous; conditions: in vivo, 336 h
Mus musculus [17] = assay: Toxicity in nude mouse xenografted with human PC3 cells assessed as change in body weight at 30 mg/kg,iv qd administered for 6 days measured on day 31 relative to control; type: organism-based, PC-3; design: dose 30 mg/kg; conditions: in vivo, 144 h
[18] = Cell cycle arrest in human HCT116 cells assessed as accumulation at sub-G1 phase at 4 uM after 48 hrs by FACS flow cytometric analysis (reference value: 1.65 +/- 0.06%); type: functional, cell-based; conditions: HCT-116
[19] = Cell cycle arrest in human HCT116 cells assessed as accumulation at S phase at 2 uM after 48 hrs by FACS flow cytometric analysis (reference value: 12.11 +/- 4.28%); type: functional, cell-based; conditions: HCT-116
[20] = Antitumor activity against human PC3 cells xenografted in nude mouse assessed as tumor growth inhibition at 50 mg/kg,iv administered every 2 days for 5 doses measured on day 38 relative to control; type: functional; conditions: PC-3, iv, read-out: TGI
Mus musculus [21] = assay: Toxicity in iv dosed CD-1 (ICR) mouse assessed as feces stain measured for 14 days; type: organism-based; conditions: in vivo, 336 h
[22] = Cell cycle arrest in human HCT116 cells assessed as accumulation at G2/M phase at 4 uM after 48 hrs by FACS flow cytometric analysis (reference value: 23.95 +/- 1.87%); type: functional, cell-based; conditions: HCT-116
[23] = Cell cycle arrest in human HCT116 cells assessed as accumulation at G2/M phase at 2 uM after 72 hrs by FACS flow cytometric analysis (reference value: 12.82 +/- 2.19%); type: functional, cell-based; conditions: HCT-116
Mus musculus [24] = assay: Toxicity in iv dosed CD-1 (ICR) mouse assessed as dehydration measured for 14 days; type: organism-based; conditions: in vivo, 336 h
[25] = Antitumor activity against human H3347 cells xenografted in nude mouse assessed as tumor growth inhibition at 30 mg/kg,iv qd administered for 6 days measured on day 15 relative to control; type: functional
[26] = Cell cycle arrest in human HCT116 cells assessed as accumulation at S phase at 4 uM after 72 hrs by FACS flow cytometric analysis (reference value: 7.49 +/- 0.95%); type: functional, cell-based; conditions: HCT-116
[27] = target: Voltage-gated inwardly rectifying potassium channel KCNH2 (Homo sapiens, UniProt Q12809); assay: Binding affinity to human ERG after 4 hrs by fluorescence polarization assay
Sequence of Voltage-gated inwardly rectifying potassium channel KCNH2 (Q12809 whole entry): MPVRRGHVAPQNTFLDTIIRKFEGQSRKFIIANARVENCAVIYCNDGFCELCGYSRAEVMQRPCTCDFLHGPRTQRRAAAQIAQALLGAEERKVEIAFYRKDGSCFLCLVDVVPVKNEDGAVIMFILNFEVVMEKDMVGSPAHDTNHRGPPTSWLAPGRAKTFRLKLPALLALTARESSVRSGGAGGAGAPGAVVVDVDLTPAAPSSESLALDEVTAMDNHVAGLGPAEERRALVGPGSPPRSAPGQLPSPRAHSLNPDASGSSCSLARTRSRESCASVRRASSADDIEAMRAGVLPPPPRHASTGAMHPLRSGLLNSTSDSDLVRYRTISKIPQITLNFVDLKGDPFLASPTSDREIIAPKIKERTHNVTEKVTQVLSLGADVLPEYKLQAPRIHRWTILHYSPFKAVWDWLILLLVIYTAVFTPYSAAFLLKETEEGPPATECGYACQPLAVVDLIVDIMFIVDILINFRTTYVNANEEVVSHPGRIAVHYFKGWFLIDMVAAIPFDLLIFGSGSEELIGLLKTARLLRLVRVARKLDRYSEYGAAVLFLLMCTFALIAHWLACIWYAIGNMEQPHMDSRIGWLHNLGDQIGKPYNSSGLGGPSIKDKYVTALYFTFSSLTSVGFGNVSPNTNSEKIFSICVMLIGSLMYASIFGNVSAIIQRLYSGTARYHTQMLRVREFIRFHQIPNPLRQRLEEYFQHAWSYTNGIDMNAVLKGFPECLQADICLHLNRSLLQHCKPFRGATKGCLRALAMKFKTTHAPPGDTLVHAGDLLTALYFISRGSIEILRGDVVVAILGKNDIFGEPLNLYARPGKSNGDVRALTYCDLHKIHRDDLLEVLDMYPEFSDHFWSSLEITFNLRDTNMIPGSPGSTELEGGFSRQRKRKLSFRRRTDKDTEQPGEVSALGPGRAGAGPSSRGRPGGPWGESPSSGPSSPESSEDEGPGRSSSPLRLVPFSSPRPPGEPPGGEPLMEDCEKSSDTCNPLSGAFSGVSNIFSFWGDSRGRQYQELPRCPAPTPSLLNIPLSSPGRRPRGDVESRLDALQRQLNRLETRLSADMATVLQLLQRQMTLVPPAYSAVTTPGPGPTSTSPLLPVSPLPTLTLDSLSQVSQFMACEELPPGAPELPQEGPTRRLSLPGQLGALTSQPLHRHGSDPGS

[28] = Antitumor activity against human PC3 cells xenografted in nude mouse assessed as tumor growth inhibition at 50 mg/kg,iv administered every 2 days for 5 doses measured on day 24 to 28 relative to control; type: functional, PC-3
Mus musculus [29] = assay: Toxicity in iv dosed CD-1 (ICR) mouse assessed as swelling of mouth measured for 14 days; type: organism-based; conditions: in vivo, 336 h
[30] = Cell cycle arrest in human HCT116 cells assessed as accumulation at sub-G1 phase at 4 uM after 72 hrs by FACS flow cytometric analysis (reference value: 3.29 +/- 1.39%); type: functional, cell-based; conditions: HCT-116
[31] = Cell cycle arrest in human HCT116 cells assessed as accumulation at sub-G1 phase at 2 uM after 72 hrs by FACS flow cytometric analysis (reference value: 3.29 +/- 1.39%); type: functional, cell-based; conditions: HCT-116
Mus musculus [32] = assay: Induction of apoptosis in HCT116 cells xenografted in nude mouse at 30 mg/kg, iv qd administered for 6 days measured 24 hrs post last dose by hematoxylin and eosin staining; type: functional, organism-based; design: dose 30 mg/kg; conditions: HCT-116
[33] = Cell cycle arrest in human HCT116 cells assessed as accumulation at G1 phase at 4 uM after 48 hrs by FACS flow cytometric analysis (reference value: 62.16 +/- 5.94%); type: functional, cell-based; conditions: HCT-116
[34] = Cell cycle arrest in human HCT116 cells assessed as accumulation at G1 phase at 1 uM after 24 hrs by FACS flow cytometric analysis (reference value: 48.75 +/- 3.69%); type: functional, cell-based; conditions: HCT-116

CCN(CC)CC(=O)Nc1ccc(NC(=O)Nc2ccc(N(CCCl)CCCl)cc2)cc1
Activity (Mus musculus [1]): -5% | Activity [2]: 12.4% | Activity [3]: 49.6% | Activity [4]: 11.8% | Activity [5]: 49.5% | Activity [6]: 12.8% | Activity [7]: 38.7% | Activity [8]: 1.58% | inhibition in vivo at 40 mg/kg [9]: 3% | Activity (HCT-116): Active | Activity [10]: 64.3% | inhibition in vivo at 30 mg/kg [11]: 90% | Activity (Mus musculus [12]): -8% | IC50 (HT-29): 19.1 µM | Activity [13]: 63.2% | IC50 [14]: 3.85 µM | Activity [15]: 28.2% | Activity (Mus musculus [16]): Toxic | Activity (Mus musculus [17]): -28% | Activity [18]: 10.5% | Activity [19]: 11.9% | inhibition in vivo at 50 mg/kg [20]: 62% | Activity (Mus musculus [21]): Dose-dependent effect | Activity [22]: 54.1% | Activity [23]: 29.2% | Activity (Mus musculus [24]): Dose-dependent effect | %max [25]: 94% | Activity [26]: 19.8% | Activity [27]: 4.48 µM | %max [28]: 88% | Activity (Mus musculus [29]): Dose-dependent effect | Activity [30]: 17.9% | Activity [31]: 19.7% | Activity (Mus musculus [32]): Active | Activity [33]: 19% | Activity [34]: 17.3%
